In patent US20230364118A1, “RIBITOL TREATMENT” (priority 2020, published 2023):
Read-outs that look alike come from different tables or passages of the source.

Columns and labels:
[1] = male, Bama, minipig, in vivo, 24 h
Procedure: Minipigs received 0 (vehicle, purified water), 0.3, 1.0, or 2.0 g/kg of ribitol in a Latinsquare design on Days 1, 12, 17, and 25, respectively. […] Body weights were measured at baseline and on each dosing day. On each dosing occasion, ECG waveforms, heart rate, and blood pressure data were recorded from at least 2 hours prior to dose (to establish baseline values) to approximately 24 hours post-dose. ECG tracings of a minimum of 30 seconds duration were obtained from all minipigs twice prior to each dose (at least 30 minutes apart) and at 0.5, 2, 4, 8, 12, and 24 hours post dose.

in vivo [2] = test: in vivo
Procedure: The purpose of this study was to determine the MTD following a single oral dose (Phase 1) and to characterize the toxicity and toxicokinetic profile following 7 days BID dosing with ribitol (Phase 2).
In Phase 1, Swiss Crl: CD1® mice (5/sex/group) were given ribitol at 0.3, 1.0, 1.5, or 2.0 g/kg/dose BID (0.6, 2.0, 3.0, or 4.0 g/kg/day) with 5 to 7 hours between doses. […] Mice were assessed for viability, clinical signs, body weight, food consumption, and macroscopic findings at necropsy.
Doses were selected for Phase 2 based on the Phase 1 study results and the intended highest clinical dose of 12.0 g/day. In Phase 2, mice (5/sex/group) were given oral doses of 0 (vehicle control, purified water), 0.5, 1.0, or 1.5 g/kg/dose ribitol BID (1.0, 2.0, 3.0 g/kg/day) with 6 hours between doses. Mice were assessed for viability, clinical signs, body weight, food consumption, clinical pathology (hematology and serum chemistry), organ weights (adrenal glands, brain, heart, kidneys, liver with gall bladder, ovaries, spleen, testes, and thymus), and macroscopic pathology at necropsy. Blood was taken from a satellite group of animals (3/sex/timepoint) for plasma TK analysis on Days 1 and 7.

In vitro Ames assay = format: cell-based
in vivo [3] = test: in vivo; design: species or system mouse
Single oral dose PK = format: in vivo, CD-1 mouse
Procedure: The PK of ribitol was studied in male and female CD-1 mice following two oral doses at 0.3 and 1.0 g/kg (FIG. 10). Blood samples were collected serially up to 24 hours post dose.

[4] = PK comparison QD, BID, TID oral dosing; format: in vivo; settings: CD-1, mouse, plasma; for AUC(0-inf) / Cmax / half-life: po, 0.3 g/kg
Procedure: Each regimen was studied in 3 male and 3 female CD-1 mice. PK of ribitol following the final dose was compared among these three regimens. The first and the second subsets of mice receiving QD and BID of ribitol were bled at 0.5, 1, 2, 4, and 6 hours post QD dosing and the second dose of the BID dosing, respectively; the third subset of mice receiving TID of ribitol were bled at 0.5, 1, 2, 4 and 12 hours post the third dose.

[5] = Plasma protein binding, animals pooled (range); format: in vitro ADME, CD-1 mouse; settings: CD-1, Sprague-Dawley, Gottingen, mouse, rat, minipig, animal plasma, 0.49 and 1.31 mM
Procedure: Protein binding studies with ribitol were performed in vitro using plasma from CD-1 mouse, Sprague-Dawley rat, Gottingen minipig, and human at 75 μg/mL (0.49 mM) and 200 μg/mL (1.31 mM) using the rapid equilibrium dialysis method. The percent of ribitol bound to plasma was approximately similar between the two concentrations tested in all species.

[6] = In vitro permeability study; format: in vitro ADME; settings: human, Caco-2, 300 μg/mL
Procedure: (§1) The absorption of ribitol was evaluated in Caco-2 cells at a concentration of 300 μg/mL. The apparent permeability values for apical (A)-to-basal (B) and B-to-A transport were <0.4 and […], respectively.

Caco-2 cells = test: In vitro permeability study; format: in vitro ADME
Procedure: as §1

[7] = CD-1, mouse, plasma, single PO 0.3 g/kg, female
[8] = CD-1, mouse, plasma, single PO 0.3 g/kg, male
[9] = CD-1, mouse, plasma, single PO 1.0 g/kg, female
[10] = CD-1, mouse, plasma, single PO 1.0 g/kg, male
[11] = female, PO 0.3 g/kg/dose BID, last dose
[12] = female, PO 0.3 g/kg/dose TID, last dose
[13] = male, PO 0.3 g/kg/dose BID, last dose
[14] = male, PO 0.3 g/kg/dose TID, last dose

With `OC[C@@H](O)[C@@H](O)[C@@H](O)CO` [ribitol, (2R,3s,4S)-Pentane-1,2,3,4,5-pentol] the “NOEL above efficacious dose of 0.5 g/kg in FKRP mutant mouse models” value [1] was “approximately 4 fold”, the “safety margin for proposed clinical starting dose” value [1] was 227 fold and the “mortality, clinical signs, body weight, food consumption, macroscopic findings” value (in vivo [2]; Phase 1, up to 2.0 g/kg/dose BID (4.0 g/kg/day), 14-day observation) was “no treatment-related mortality”. For the same molecule, the NOAEL at 7 days (in vivo [2]; both, CD-1, mouse, in vivo, po) was 3000 mg/kg/day, the NOAEL (in vivo [2]; mouse, in vivo, po) was 1.5 g/kg/dose BID and the genotoxicity (In vitro Ames assay) was “devoid of genotoxicity potential”. The AUC(0-t) (in vivo [3]; CD-1, mouse, po, 0.5 mg/kg/day, AUC(0-24), calculated exposure) was 182 µg·h/mL, the AUC(0-t) (in vivo [3]; CD-1, mouse, po, 2 g/kg/day, AUC(0-24), calculated exposure) was 727 µg·h/mL and the AUC(0-t) (in vivo [3]; female, CD-1, mouse, po, 3 g/kg/day, Steady-state AUC(0-24)) was 839 µg·h/mL. The AUC(0-t) (in vivo [3]; female, mouse, 3 g/kg/day, Steady-state AUC(0-24)) was 749 µg·h/mL, the AUC(0-t) (in vivo [3]; male, CD-1, mouse, po, 3 g/kg/day, Steady-state AUC(0-24)) was 1340 µg·h/mL and the AUC(0-t) (in vivo [3]; male, mouse, 3 g/kg/day, Steady-state AUC(0-24)) was 974 µg·h/mL. The Tmax (Single oral dose PK; CD-1, mouse, plasma, oral, mice, stated for FOB timepoint selection, read-out: Tmax) was about 60 min, the AUC(0-inf) (Single oral dose PK; [7]) was 55900 ng·h/mL and the Cmax (Single oral dose PK; [7]) was 55 µg/mL. The bioavailability (Single oral dose PK; CD-1, mouse, plasma, single PO 0.3 g/kg, female, read-out: % F) was 30.9%, the half-life (Single oral dose PK; CD-1, mouse, plasma, single PO 0.3 g/kg, female, read-out: T1/2 (converted)) was 78.6 min and the Tmax (Single oral dose PK; CD-1, mouse, plasma, single PO 0.3 g/kg, female, read-out: Tmax) was 30 min. For the same molecule, the AUC(0-inf) (Single oral dose PK; [8]) was 41600 ng·h/mL, the Cmax (Single oral dose PK; [8]) was 45.6 µg/mL and the bioavailability (Single oral dose PK; CD-1, mouse, plasma, single PO 0.3 g/kg, male, read-out: % F) was 24.6%. It also gave a half-life (Single oral dose PK; CD-1, mouse, plasma, single PO 0.3 g/kg, male, read-out: T1/2 (converted)) of 40.6 min, a Tmax (Single oral dose PK; CD-1, mouse, plasma, single PO 0.3 g/kg, male, read-out: Tmax) of 30 min and an AUC(0-inf) (Single oral dose PK; [9]) of 129000 ng·h/mL. The Cmax (Single oral dose PK; [9]) was 124 µg/mL, the bioavailability (Single oral dose PK; CD-1, mouse, plasma, single PO 1.0 g/kg, female, read-out: % F) was 22.1% and the half-life (Single oral dose PK; CD-1, mouse, plasma, single PO 1.0 g/kg, female, read-out: T1/2 (converted)) was 70.2 min. For the same molecule, the Tmax (Single oral dose PK; CD-1, mouse, plasma, single PO 1.0 g/kg, female, read-out: Tmax) was 30 min, the AUC(0-inf) (Single oral dose PK; [10]) was 173000 ng·h/mL and the Cmax (Single oral dose PK; [10]) was 112 µg/mL. It also gave a bioavailability (Single oral dose PK; CD-1, mouse, plasma, single PO 1.0 g/kg, male, read-out: % F) of 30.5%, a half-life (Single oral dose PK; CD-1, mouse, plasma, single PO 1.0 g/kg, male, read-out: T1/2 (converted)) of 78.6 min and a Tmax (Single oral dose PK; CD-1, mouse, plasma, single PO 1.0 g/kg, male, read-out: Tmax) of 30 min. For the same molecule, the Tmax (Single oral dose PK; both sexes, CD-1, mouse, plasma, po, read-out: Tmax after oral administration) was under 120 min, the bioavailability (Single oral dose PK; both sexes, CD-1, plasma, po, mouse, range over doses and sexes, read-out: oral bioavailability) was 22.1 to 30.9% and the half-life (Single oral dose PK; both sexes, CD-1, plasma, po, mouse, range, read-out: T1/2 following the oral dose) was 40.6 to 78.6 min. It also gave a Tmax ([4]; PO 0.3 g/kg QD, female) of 30 min, a Tmax ([4]; PO 0.3 g/kg QD, male) of 30 min and an AUC(0-inf) ([4]; female, PO 0.3 g/kg QD) of 47100 ng·h/mL. For the same molecule, the Cmax ([4]; female, PO 0.3 g/kg QD) was 33300 ng/mL, the half-life ([4]; female, PO 0.3 g/kg QD) was 70.2 min and the AUC(0-inf) [4, 11] was 48300 ng·h/mL. It also gave a Cmax [4, 11] of 28300 ng/mL, a half-life [4, 11] of 59 min and an AUC(0-inf) [4, 12] of 40600 ng·h/mL. The Cmax [4, 12] was 43900 ng/mL, the half-life [4, 12] was 31.8 min and the AUC(0-inf) ([4]; male, PO 0.3 g/kg QD) was 45200 ng·h/mL. For the same molecule, the Cmax ([4]; male, PO 0.3 g/kg QD) was 34200 ng/mL, the half-life ([4]; male, PO 0.3 g/kg QD) was 50.3 min and the AUC(0-inf) [4, 13] was 49600 ng·h/mL. It also gave a Cmax [4, 13] of 27400 ng/mL, a half-life [4, 13] of 90 min and an AUC(0-inf) [4, 14] of 28200 ng·h/mL. For the same molecule, the Cmax [4, 14] was 31400 ng/mL, the half-life [4, 14] was 27.2 min and the fraction unbound [5] was 0.554 to 0.614. For the same molecule, the Papp A→B at 300 μg/mL ([6]; read-out: apparent permeability A-to-B) was under 0.4 ×10⁻⁶ cm/s, the Papp B→A at 300 μg/mL ([6]; read-out: apparent permeability B-to-A) was under 0.1 ×10⁻⁶ cm/s and the P-gp substrate (Caco-2 cells) was “not a P-glycoprotein (P-gp) substrate”. The permeability class (Caco-2 cells) was “low permeability”.
